In ChEMBL document CHEMBL4725258, “2β-3,4-Unsaturated sialic acid derivatives: Synthesis optimization, and biological evaluation as Newcastle disease virus hemagglutinin-neuraminidase inhibitors” (Bioorg Med Chem, 2020) one finds IC50 data, which are given here for 13 molecules.

The nature of assay [1]: Inhibition of Newcastle disease virus neuraminidase using 4-MUNeu5Ac as substrate incubated for 15 mins by spectrofluorometric analysis. Also on record: species or system avian paramyxovirus 1.
Assay [2] addresses T1, Sialidase-3 (Homo sapiens, UniProt Q9UQ49).
T1 sequence (Q9UQ49 whole entry): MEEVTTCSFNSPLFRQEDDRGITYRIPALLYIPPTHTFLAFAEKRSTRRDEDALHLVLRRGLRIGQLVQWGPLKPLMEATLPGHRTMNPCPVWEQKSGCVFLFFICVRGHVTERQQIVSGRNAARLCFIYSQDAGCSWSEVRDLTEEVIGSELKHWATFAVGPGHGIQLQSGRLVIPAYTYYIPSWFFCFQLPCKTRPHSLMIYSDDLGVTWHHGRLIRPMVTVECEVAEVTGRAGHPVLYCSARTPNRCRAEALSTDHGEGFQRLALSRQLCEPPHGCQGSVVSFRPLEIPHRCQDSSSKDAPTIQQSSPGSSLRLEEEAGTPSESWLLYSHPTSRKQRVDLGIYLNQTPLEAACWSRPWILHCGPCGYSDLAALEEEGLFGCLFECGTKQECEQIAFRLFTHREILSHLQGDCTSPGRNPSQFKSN
Kind of assay: Inhibition of human NEU3 expressed in HEK293A cells as substrate incubated for 1 hr by spectrofluorometric analysis. Details: species or system HEK293.

Usually IC50 stands for the midpoint of a concentration-inhibition curve. Low readings indicate greater potency, high ones weaker potency.

As for `[N-]=[N+]=N[C@H]1C=C(C(=O)O)O[C@@H]([C@H](O)[C@H](O)CO)[C@@H]1NC(=O)C(F)(F)C(F)(F)C(F)(F)F`, in assay [1], the IC50 came to 0.213 µM.

As to `CCS[C@@]1(C(=O)O)C=C[C@@H](NC(C)=O)[C@H]([C@H](O)[C@H](O)CO)O1`, the IC50 in assay [2] was greater than 1000 µM; in assay [1], 248 µM.

Consider `CC(=O)N[C@H]1[C@H]([C@H](O)[C@H](O)CO)OC(C(=O)O)=C[C@@H]1O` [NEU5AC2EN], for which the figures for the half-inhibitory concentration (IC50) in assay [2] and in assay [1] were 2.4 µM and 13 µM, respectively.

For `CCS[C@]1(C(=O)O)C=C[C@@H](NC(C)=O)[C@H]([C@H](O)[C@H](O)CO)O1`, the half-maximal inhibitory concentration (IC50) in assay [2] was greater than 1000 µM; in assay [1], 100 µM.

Take `O=C(O)C1=C[C@H](O)[C@@H](NC(=O)C(F)(F)F)[C@H]([C@H](O)[C@H](O)CO)O1`: the values for the IC50 in assay [2] and in assay [1] were 3.9 µM and 2.45 µM, respectively.

For the molecule `CC(=O)N[C@@H]1C=C[C@](OC(C)C)(C(=O)O)O[C@H]1[C@H](O)[C@H](O)CO`, the IC50 in assay [2] is greater than 1000 µM; in assay [1], 511 µM.

Consider `CC(=O)N[C@@H]1C=C[C@@](OC(C)C)(C(=O)O)O[C@H]1[C@H](O)[C@H](O)CO`, for which the IC50 in assay [2] was greater than 1000 µM; in assay [1], 148 µM.

Regarding `CO[C@@]1(C(=O)O)C=C[C@@H](NC(C)=O)[C@H]([C@H](O)[C@H](O)CO)O1`, the IC50 in assay [2] and in assay [1] was greater than 1000 µM in each case.

Consider `CCO[C@@]1(C(=O)O)C=C[C@@H](NC(C)=O)[C@H]([C@H](O)[C@H](O)CO)O1`, for which the concentration for half-maximal inhibition (IC50) in assay [2] is greater than 1000 µM; in assay [1] it was 384 µM.

Consider `CCCCO[C@@]1(C(=O)O)C=C[C@@H](NC(C)=O)[C@H]([C@H](O)[C@H](O)CO)O1`, for which the figures for the IC50 in assay [2] and in assay [1] were greater than 1000 µM and 485 µM, respectively.

Take `CCCO[C@@]1(C(=O)O)C=C[C@@H](NC(C)=O)[C@H]([C@H](O)[C@H](O)CO)O1`: the half-inhibitory concentration (IC50) in assay [2] is greater than 1000 µM; in assay [1], 512 µM.

In the case of `CO[C@]1(C(=O)O)C=C[C@@H](NC(C)=O)[C@H]([C@H](O)[C@H](O)CO)O1`, the IC50 in assay [2] and in assay [1] was greater than 1000 µM each time.

Consider `CCCCCCCCS[C@@]1(C(=O)O)C=C[C@@H](NC(C)=O)[C@H]([C@H](O)[C@H](O)CO)O1`, for which the IC50 in assay [2] was greater than 1000 µM; in assay [1], 406 µM.
